{
  "source": "paper PMC7272432",
  "about": "“Amyloid Aggregation of Insulin: An Interaction Study of Green Tea Constituents” (Scientific Reports, 2020)",
  "target": "T1, human insulin (Homo sapiens, UniProt P01308)",
  "T1 construct": "gene INS; Human insulin (I2643, recombinant, expressed in yeast); 51 amino acids divided into two chains",
  "T1 sequence (P01308 25-54)": "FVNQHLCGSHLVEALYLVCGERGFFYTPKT",
  "T1 sequence (P01308 90-110)": "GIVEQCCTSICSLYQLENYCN",
  "experiment": "ThT fluorescence assay of insulin amyloid aggregation ([…] insulin, pH […] °C), supported by kinetics, AFM and ATR-FTIR",
  "format": "biochemical",
  "data": [
    {"compound": "O=C(O[C@@H]1Cc2c(O)cc(O)cc2O[C@@H]1c1cc(O)c(O)c(O)c1)c1cc(O)c(O)c(O)c1", "note": "[EGCG, (-)-epigallocatechin gallate]", "values": [
      {"measurement": "IC50", "value": "476 ± 32.5", "unit": "µM"}
    ]}
  ]
}
